Source: PMC8911181, “A Novel CDK4/6 and PARP Dual Inhibitor ZC-22 Effectively Suppresses Tumor Growth and Improves the Response to Cisplatin Treatment in Breast and Ovarian Cancer” (International Journal of Molecular Sciences, 2022)

Tests used:
Assay in all cases: Cell viability assay (CCK-8), IC50
Type in all cases: cell-based
MDA-MB-231 cells = settings: Homo sapiens, 6 days, medium replenished every 2 days
Procedure: (§1) Human breast cancer cell lines MDA-MB-231 and SUM-159, and human ovarian cancer cell lines OVCAR5 and SKOV3 were obtained from the American Type Culture Collection (ATCC). MDA-MB-231 cells were cultured in L-15 medium with 10% fetal bovine serum (FBS), incubated at 37 °C in a humidified incubator without additional CO2. SUM-159 cells were maintained in Dulbecco’s modified Eagle’s medium (DMEM) containing 10% FBS, and OVCAR5 and SKOV3 cells were incubated in Roswell Park Memorial Institute (RPMI)-1640 medium with 10% FBS and cultured at 37 °C in a humidified incubator containing 5% CO2.
(§2) Cell viability assay was performed as described before. Briefly, 2500/well of breast or ovarian cancer cells were seeded into a 96-well plate; grown overnight; treated with indicated concentration of Olaparib, LY2835219, ZC22, LP-1, GC-24, or cisplatin alone or together for an indicated amount of time; and then incubated with Cell Counting kit-8 (CCK-8) substrate (Dojindo, Kumamoto, Kyushu Island, Japan) for 1–2 h at 37 °C. Cell viability was calculated by the absorbance at 450 nm measured by the GloMax Explorer (Promega, Madison, WI, USA). Cells without treatment were set as 100%, and medium control (no cells) was set as 0%.
(§3) Figure 1 Synthesis strategy and activity assay of the novel compounds targeting both PARP and CDK4/6. (A) Synthesis strategy of the three novel compounds GC-24, LP-1, and ZC-22. (B) IC50 of GC-24, LP-1, and ZC-22 in breast and ovarian cancer cells. Cells were treated with increasing concentrations of GC-24, LP 1, or ZC-22 for 6 days with replenishment of medium every 2 days. Cell proliferation was analyzed by CCK-8 assays. (C) The reagents and conditions used for the chemical synthesis of ZC-22 in this study: (a) Pd(AcO)2, BINAP, CS2CO3, 1,4-Dioxane, 100 °C, 12 h; (b) CF3COOH, DCM, Room temperature, 6 h; (c) HOBt, EDCI, DIPEA, DMF, Room temperature, 12 h. TEXT PRINTED IN THE PICTURE: (B) LP-1: MDA-MB-231 IC50 (μM): >50; SUM-159 IC50 (μM): 7.780; OVCAR5 IC50 (μM): 10.11; SKOV3 IC50 (μM): 10.16 | (B) GC-24: MDA-MB-231 IC50 (μM): 33.77; SUM-159 IC50 (μM): 17.77; OVCAR5 IC50 (μM): 26.08; SKOV3 IC50 (μM): >50 | (B) ZC-22: MDA-MB-231 IC50 (μM): 3.608; SUM-159 IC50 (μM): 0.435; OVCAR5 IC50 (μM): 0.758; SKOV3 IC50 (μM): 0.542
(§4) Figure 2 ZC-22 suppresses proliferation of breast and ovarian cancer cells. (A) IC50 of ZC-22, Olaparib, and LY2835219 (Abemaciclib) in breast and ovarian cancer cells. Cells were treated with increasing concentrations of ZC-22, Olaparib, or LY2835219 for 6 days with replenishment of medium every 2 days. Cell proliferation was analyzed by CCK-8 assays. (B) Cell proliferation assay of breast and ovarian cancer cells with indicated treatment. MDA-MB-231 cells were treated with 2 μM Olaparib (OLA) or LY2835219 (LY-2) alone or together (OLA + LY-2) or with ZC-22 alone for 48 or 72 h. SUM-159, OVCAR5, and SKOV3 cells were treated with 0.5 μM OLA or LY-2 alone or together or with ZC-22 alone. Cell proliferation assay was analyzed by CCK-8 assays. Values are means ± SD, n = 3. ns, not significant, * p < 0.05, ** p < 0.01 and *** p < 0.001 for comparisons with the DMSO-treated group using an unpaired t-test. TEXT PRINTED IN THE PICTURE: (A) ZC-22: MDA-MB-231 IC50 (μM): 3.608; SUM-159 IC50 (μM): 0.435; OVCAR5 IC50 (μM): 0.758; SKOV3 IC50 (μM): 0.542 | (A) LY2835219: MDA-MB-231 IC50 (μM): 11.28; SUM-159 IC50 (μM): 0.664; OVCAR5 IC50 (μM): 9.791; SKOV3 IC50 (μM): 1.158 | (A) Olaparib: MDA-MB-231 IC50 (μM): 32.13; SUM-159 IC50 (μM): 19.29; OVCAR5 IC50 (μM): 30.51; SKOV3 IC50 (μM): >50

OVCAR5 cells = settings: Homo sapiens, OVCAR-5, 6 days, medium replenished every 2 days
Procedure: as §1, §2, §3, §4

SUM-159 cells = settings: Homo sapiens, SUM159, 6 days, medium replenished every 2 days
Procedure: as §1, §2, §3, §4

SKOV3 cells = settings: Homo sapiens, SK-OV-3, 6 days, medium replenished every 2 days
Procedure: as §1, §2, §3, §4

Structure (SMILES) | IC50 (MDA-MB-231 cells) | IC50 (OVCAR5 cells) | IC50 (SUM-159 cells) | IC50 (SKOV3 cells)
CCN1CCN(Cc2ccc(Nc3ncc(F)c(-c4cc(F)c5nc(C)n(C(C)C)c5c4)n3)nc2)CC1 [LY2835219, Abemaciclib, reference compound] | 11300 nM | 9790 nM | 664 nM | 1160 nM
Cc1nc2c(F)cc(-c3nc(Nc4ccc(N5CCN(C(=O)c6cc(Cc7n[nH]c(=O)c8ccccc78)ccc6F)CC5)cn4)ncc3F)cc2n1C(C)C [ZC-22, 4-(4-fluoro-3-(4-(6-((5-fluoro-4-(4-fluoro-1-isopropyl-2-methyl-1H-benzo[d]imidazole-6-yl)pyrimidin-2-yl)amino)pyridin-3-yl)piperazine-1-carbonyl)benzyl)phthalazin-1(2H)-one] | 3610 nM | 758 nM | 435 nM | 542 nM
